Publication PMC12563681, “Cecytb-2, a Cytochrome b561 Homolog, Functions as an Ascorbate-Specific Transmembrane Ferric Reductase at Intestinal Lumens of Caenorhabditis elegans” (Biomolecules, 2025)

Experiments:
[1] = molecular target: T1, Cecytb-2 (Cecytb-2-H6) (Caenorhabditis elegans, UniProt O16271); assay: pulse radiolysis, heme oxidation at […] nm; set-up: gene CELE_F39G3.5; conditions: electron acceptor; 10 mM AsA present, pH 7.0, 1% octyl glucoside
T1 sequence (O16271 1-251): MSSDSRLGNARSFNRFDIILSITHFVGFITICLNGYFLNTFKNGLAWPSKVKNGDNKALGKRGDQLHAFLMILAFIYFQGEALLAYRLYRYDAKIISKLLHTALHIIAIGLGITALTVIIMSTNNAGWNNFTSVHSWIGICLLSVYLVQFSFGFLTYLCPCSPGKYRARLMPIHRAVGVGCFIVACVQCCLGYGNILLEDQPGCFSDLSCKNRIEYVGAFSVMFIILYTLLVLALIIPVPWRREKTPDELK

[2] = molecular target: T1, Cecytb-2 (Cecytb-2-H6); assay: stopped-flow heme reduction at […] nm; type: biochemical; set-up: gene CELE_F39G3.5; full length, 251 residues, 28,127 Da native; expressed in Pichia pastoris GS115, purified from microsomes in octyl glucoside; Ser2, Ser3 at N-terminus; two b hemes; conditions: electron donor; pH 7.0, 1% octyl glucoside, about 25 °C

Row | SMILES | pulse radiolysis, heme oxidation at 435 nm [1] | stopped-flow heme reduction at 426 nm [2]
1 | [O]C1=C(O)[C@@H]([C@@H](O)CO)OC1=O [MDA radical] | heme oxidation of Cecytb-2-H6 by the generated MDA radical | 
2 | O=C1O[C@H]([C@@H](O)CO)C(O)=C1O [AsA] |  | second-order rate constant (k1) for the heme reduction with AsA was estimated
